Earlier results as cited in US20060120979A1, “Skin care composition comprising hydroquinone and a substantially anhydrous base” (priority 2004, published 2006).

Compound: Oc1ccc(O)cc1 [Hydroquinone]
- solubility in alcohols (alcohols): freely soluble
- solubility in water (water): less soluble
